Assay results as given in PMC4756048 (Clinical Pharmacokinetics, 2015).
Where two headings read alike, the source gives them in different places.

Experiments:
[1] = system: CYP1A2; conditions: caffeine; cited from earlier work
[2] = system: CatA and carboxylesterase (CES) 1; conditions: cited from earlier work
[3] = biological target: T1, sodium taurocholate cotransporting polypeptide (NTCP) (Homo sapiens, UniProt Q14973); test: In vitro transporter inhibition; type: in vitro ADME; conditions: data on file
T1 sequence (Q14973 1-349): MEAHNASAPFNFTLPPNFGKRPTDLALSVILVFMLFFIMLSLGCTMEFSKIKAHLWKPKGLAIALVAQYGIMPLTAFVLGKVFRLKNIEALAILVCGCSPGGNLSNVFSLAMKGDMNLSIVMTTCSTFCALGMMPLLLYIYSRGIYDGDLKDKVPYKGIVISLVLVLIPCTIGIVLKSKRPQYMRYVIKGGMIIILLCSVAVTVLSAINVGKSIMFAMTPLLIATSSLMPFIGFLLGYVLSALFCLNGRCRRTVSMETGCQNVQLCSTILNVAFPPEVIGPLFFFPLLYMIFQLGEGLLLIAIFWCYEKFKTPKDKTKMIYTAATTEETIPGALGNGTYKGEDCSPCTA

[4] = biological target: T2, cathepsin A (Homo sapiens, UniProt P10619); test: In vitro cathepsin A inhibition; type: biochemical; conditions: data on file
T2 sequence (P10619 29-480): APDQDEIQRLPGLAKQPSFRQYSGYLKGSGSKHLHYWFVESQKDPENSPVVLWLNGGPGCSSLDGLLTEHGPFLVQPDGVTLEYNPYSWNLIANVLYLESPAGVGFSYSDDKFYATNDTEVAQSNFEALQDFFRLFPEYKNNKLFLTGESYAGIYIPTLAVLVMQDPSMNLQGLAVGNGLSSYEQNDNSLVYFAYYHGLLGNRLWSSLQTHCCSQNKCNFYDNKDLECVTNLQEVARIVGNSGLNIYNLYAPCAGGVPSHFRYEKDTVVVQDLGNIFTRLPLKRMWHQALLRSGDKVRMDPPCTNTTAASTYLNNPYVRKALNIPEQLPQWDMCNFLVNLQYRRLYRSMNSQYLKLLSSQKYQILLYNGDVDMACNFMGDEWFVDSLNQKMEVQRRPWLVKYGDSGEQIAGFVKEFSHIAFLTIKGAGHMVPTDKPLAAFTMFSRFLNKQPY

[5] = type: in vivo, human; conditions: data on file
[6] = cited from earlier work
[7] = system: plasma proteins; conditions: largely to albumin; cited from earlier work
[8] = system: CYP2A6; conditions: in vitro; cited from earlier work
[9] = system: CYP2C8; conditions: in vitro; cited from earlier work
[10] = system: CYP2D6; conditions: in vitro; cited from earlier work
[11] = system: CYP2C19; conditions: in vitro; cited from earlier work
[12] = system: CYP3A; conditions: in vitro; cited from earlier work
[13] = system: OATP1B1; conditions: in vitro; cited from earlier work
[14] = system: MRP2; conditions: in vitro; cited from earlier work
[15] = system: bile salt export pump (BSEP); conditions: in vitro; cited from earlier work
[16] = system: P-gp; conditions: in vitro; cited from earlier work
[17] = system: BCRP; conditions: in vitro; cited from earlier work
[18] = system: OATP1B3; conditions: in vitro; data on file; cited from earlier work
[19] = system: OATP1B1; conditions: in vitro; cited from earlier work; remark: listed apart in the source
[20] = system: OATP1B3; conditions: in vitro; cited from earlier work
[21] = system: MRP2; conditions: in vitro; data on file; cited from earlier work
[22] = system: P-gp; conditions: in vitro; data on file; cited from earlier work
[23] = system: breast cancer resistance protein (BCRP); conditions: in vitro; data on file; cited from earlier work
[24] = system: CYP3A; conditions: in vitro; cited from earlier work; remark: listed apart in the source
[25] = cited from earlier work; remark: listed apart in the source
[26] = system: CYP3A (intestinal); conditions: cited from earlier work
[27] = interim analysis, simeprevir 150 mg once daily
[28] = interim analysis, simeprevir 150 mg once daily, vs historical data on simeprevir alone
[29] = vs subjects with normal renal function
[30] = simeprevir 150 mg once daily + erythromycin 500 mg three times daily, days 1–7, fed, 24 healthy subjects
[31] = simeprevir 200 mg once daily + ritonavir 100 mg twice daily, fed, 12 healthy male subjects
[32] = oral midazolam 0.075 mg/kg, simeprevir 150 mg, fed, 16 healthy subjects, least squares mean ratio (90 % CI)

## Cn1c(=O)c2c(ncn2C)n(C)c1=O [Caffeine, caffeine]
[1]
  increase in exposure with coadministration of simeprevir: 12%

## CC(C)OC(=O)[C@H](C)N[P@](=O)(OC[C@H]1O[C@@H](n2ccc(=O)[nH]c2=O)[C@](C)(F)[C@@H]1O)Oc1ccccc1 [sofosbuvir]
[2]
  conversion to metabolite GS-331007: > 90%

## COc1ccc2c(O[C@@H]3C[C@H]4C(=O)N[C@]5(C(=O)NS(=O)(=O)C6CC6)C[C@H]5/C=C\CCCCN(C)C(=O)[C@@H]4C3)cc(-c3nc(C(C)C)cs3)nc2c1C [simeprevir]
[3]
  inhibition of NTCP: inhibitor
[4]
  inhibition of cathepsin A: no clinically relevant inhibition
[5]
  AUC24h of simeprevir, historical data in the absence of cyclosporine: 45,202 ng·h/mL
  Cmax of simeprevir, historical data in the absence of cyclosporine: 3235 ng/mL
[5]; day 14, simeprevir 150 mg once daily
  AUC24h of simeprevir in subjects receiving cyclosporine: 262,618 ng·h/mL
[5]; day 14, simeprevir 150 mg once daily, n = 9
  Cmax of simeprevir in subjects receiving cyclosporine: 15,321 ng/mL
[5]; [27]
  AUC24h of simeprevir in subjects receiving tacrolimus: 83,808 ng·h/mL
  Cmax of simeprevir in subjects receiving tacrolimus: 5780 ng/mL
[5]; [28]
  increase in AUC24h of simeprevir with tacrolimus: 85%
  increase in Cmax of simeprevir with tacrolimus: 79%
[6]; HCV-infected subjects (n = 6)
  mean terminal elimination half-life: approximately 41 h
[6]; high-fat/high-caloric breakfast
  increase in AUC with food: 61%
[6]; human, in vivo
  AUC in subjects infected with HCV relative to uninfected subjects: 2–3 times
[6]; non-HCV-infected subjects vs matched healthy controls
  increase in exposure in moderate hepatic impairment: approximately 2 fold
[6]; non-HCV-infected subjects
  increase in exposure in severe compared with moderate hepatic impairment: approximately 2 fold
[6]; normal-caloric breakfast
  increase in AUC with food: 69%
[6]; once-daily dosing
  time to steady state: 7 days
[6]; oral
  time of maximum plasma concentration (Cmax) postdose: 4 to 6 h
[6]; repeated doses between 75 mg and 200 mg daily
  dose proportionality of Cmax and AUC: more than dose proportionally
[6]; subjects without HCV infection
  mean terminal elimination half-life: 10 to 13 h
[6]; [29]
  increase in AUC24h in severe renal impairment: 62%
  increase in Cmax in severe renal impairment: 34%
[7]
  bound to plasma proteins: > 99.9%
[8]
  inhibition of CYP2A6: moderate inhibitor
[9]
  inhibition of CYP2C8: moderate inhibitor
[10]
  inhibition of CYP2D6: moderate inhibitor
[11]
  inhibition of CYP2C19: weak inhibitor
[12]
  inhibition of CYP3A: weak inhibitor
[13]
  inhibition of OATP1B1: inhibitor
[14]
  inhibition of MRP2: inhibitor
[15]
  inhibition of BSEP: inhibitor
[16]
  inhibition of P-gp: inhibitor
[17]
  inhibition of BCRP: inhibitor
[18]
  inhibition of OATP1B3: inhibitor
[19]
  hepatic uptake by OATP1B1: mediate hepatic uptake
[20]
  hepatic uptake by OATP1B3: mediate hepatic uptake
[21]
  substrate of MRP2: substrate
[22]
  substrate of P-gp: substrate
[23]
  substrate of BCRP: substrate
[24]
  substrate of CYP3A: substrate
[25]; [30]
  fold increase in mean AUC24h of simeprevir with erythromycin: 7.47 fold
  fold increase in mean Cmax of simeprevir with erythromycin: 4.53 fold
  fold increase in mean Cmin of simeprevir with erythromycin: 12.74 fold
[25]; [31]
  fold increase in AUC24h of simeprevir with ritonavir, multiple doses: 7.18 fold
  fold increase in Cmax of simeprevir with ritonavir, multiple doses: 4.70 fold
  fold increase in Cmin of simeprevir with ritonavir, multiple doses: 14.35 fold

## Cc1ncc2n1-c1ccc(Cl)cc1C(c1ccccc1F)=NC2 [Midazolam, midazolam]
[26]; [32]
  AUClast ratio of probe with vs without simeprevir: 1.45 (1.35–1.57)
  Cmax ratio of probe with vs without simeprevir: 1.31 (1.19–1.45)
[26]; oral midazolam
  increase in exposure with coadministration of simeprevir: 31%
